Test results reported in patent US9821000B2, “Compounds, compositions and corresponding uses for preventing and/or treating of dyslipidemia” (CENTRE NATIONAL DE LA RECHERCHE SCIENTIFIQUE (CNRS), priority 2013, dated 2017).
Entries after “also recorded” stand apart in the source; their conditions may differ.

Columns and labels:
QM strain = experiment: Toxicity test on QM strain (growth inhibition haloes); type: cell-based, Saccharomyces cerevisiae; details: after three days; for toxicity for cells that do not synthesize triglycerides: QM strain on agar medium; for haloes of growth inhibition (absence of colonies): QM strain, 5 μl drops on agar
Method: 5 μl drops of OAG, LPA or oleic acid were deposited, from stock solutions in the concentrations indicated, on the surface of an agar medium on which the QM strain had been preliminarily spread. […] These haloes are on the contrary not observed in the presence of LPA and OAG.
At the same time, wild strains (WT) and QM are cultivated in aerobic conditions under stirring and at 28° C., in a YPG liquid medium before seeding 3500 cells per cm^2 of YPG+agar 2% (m/v). Following this transfer to solid medium, 1 μL drops of solutions of different compounds at 1, 10 and 100 mM in DMSO or EtOH are deposited on the surface of the agar. Separately, deposits of DMSO and EtOH are also made in order to assess the intrinsic toxicity of these two solvents. After three days of culture of 28° C., the toxicity of the tested compounds is evaluated by comparing the diameters of the growth inhibition haloes obtained for the deposits of undissolved solvents with those of the deposits of different concentrations of compounds tested.

eIF2α = experiment: Western blotting of eIF2α phosphorylation (UPR) in BRIN-BD11 cells; type: cell-based, rat; details: BRIN-BD11, palmitic acid 200 μM
Method: The BRIN-BD11 pancreatic β-cells were cultivated in controlled conditions or in the presence of an exogenous source of saturated fatty acids (palmitic acid 200 μM), as described by Dhayal& Morgan (2011) in order to generate conditions of lipotoxicity with or without addition of OAG or LPA.
FIG. 7B—The rates of phosphorylation of eIF2α were also analyzed under different conditions by Western blotting method, in the absence (Ø) or in the presence of OAG or LPA and normalized with quantities of total eIF2α. […] A.U.: arbitrary units.
The cells BRIN-BD11 are seeded at a density of 0.5×10^5 cells/mL in T25 flasks for 24 h. As indicated here above, the complete medium is then replaced by an equivalent devoid of FCS but containing the lipid reagents of interest. […] In a second stage, the membranes are stripped with the buffer Re-Blot Plus-Strong (Millipore) and then probed a second time with total anti-eIF2α antibodies (CellSignalling (New EnglandBiolabs) diluted to 1/1000th. The analysis by densitometry of the relative abundance of the phosphorylated and non-phosphorylated forms of the protein eIF2α is done with the Fluor-S Multi-imager analysis system combined with the software program Quantify One (Biorad UK Ltd).

UPR response = experiment: UPR triggering test (4xUPRE-LacZ reporter, β-galactosidase activity) in hem1Δ yeast; type: cell-based, Saccharomyces cerevisiae; details: hem1Δ in liquid medium inducing SFA accumulation, 200 μM compound
Excerpt: A plasmidic construction carrying a fusion gene, corresponding to the encoding sequence of the gene LacZ placed under dependence of an artificial promoter containing four UPR elements (UPRE) was introduced into a hem1Δf yeast strain, as described in Pineau et al. (2009). During an induction of the UPR response, the Hac1p/XBP1p transcription is activated and gets fixed on the UPR elements of the fusion gene, leading to the transcription of the LacZ gene. With LacZ encoding β-galactosidase, the level of induction of UPR is measured to detect the corresponding enzyme activity. The hem1Δ yeast strain was cultivated in a liquid medium inducing the accumulation of SFA without other addition (Ø), or in the same medium supplemented with 200 μM of oleic acid, OAG or LPA as indicated. A.U.: arbitrary units.
The hem1Δ strain transformed by the plasmid pPW344 [2 μ URA34×UPRE-LacZ (Patil et al., 2004)] is cultivated in liquid medium YPG^A, YPG or YPG+200 μM of compound to be tested in aerobic conditions, under stirring and at 28° C. for 7 h, starting from an initial cell concentration of 2·10^6 cells/mL. At the end of the culture, 10^8 cells are collected in order to quantify the beta-galactosidase (β-gal) activity resulting from the expression of the LacZ trans gene (in the case of a triggering of UPR). […]

| Compound | toxicity for cells that do not synthesize triglycerides (QM strain) | haloes of growth inhibition (absence of colonies) (QM strain) | UPR induction (rate of phosphorylation of eIF2α normalized to total eIF2α) (eIF2α) | UPR response in lipo-intoxicated yeasts (β-galactosidase activity) (UPR response) |
| --- | --- | --- | --- | --- |
| CCCCCCCC/C=C\CCCCCCCC(=O)OC[C@@H](O)COP(=O)(O)O [LPA, 1-oleoyl-sn-glycerol-3-phosphate] | not toxic | not observed | reducing the induction rate of UPR | reduce the UPR response |
| CCCCCCCC/C=C\CCCCCCCC(=O)OC[C@H](CO)OC(C)=O [OAG, 1-oleoyl-2-acetyl-sn-glycerol] | not toxic | not observed | reducing the induction rate of UPR; also recorded: reduces the UPR | reduce the UPR response |
